PubChem BioAssay AID686955 (ICCB-Longwood Screening Facility, Harvard Medical School, 2013)
Active and inactive are the calls of the source.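 Rule for the calls: active = compounds that shift the dex/IL-1 ratio, either lowering it activators or doubling it inhibitors, at 1 µM (some results past the limit were not filed as active); inactive = the rest.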

System: NF-kB luciferase reporter cells, IL-1b + dexamethasone, 18 h
Test: glucocorticoid sensitivity changers, NF-kB reporter – cell-based, luciferase, IL-1B plus dexamethasone, confirmation (AID 686955)
Details: for assay II/I ratio: 4 uM; for normalized assay II/I ratio: at 1 µM

SMILES	assay II/I ratio (dexamethasone conc 1)	assay II/I ratio (dexamethasone conc 2)	normalized assay II/I ratio	normalized assay II/I ratio (dexamethasone concentration 2)
Cn1cc(C2=C(c3cccc(NCC(O)CO)c3)C(=O)NC2=O)c2cc(Cl)ccc21 (stereo unspecified)	0.664	0.47	1.93 (inactive)	1.97
COc1cccc(-n2ncc3c(N/N=C/c4ccncc4)ncnc32)c1	0.504	0.362	1.47 (inactive)	1.44
O=C(NC1NNC2NNC(c3cccnc3)CC21)C1CC1 (stereo unspecified)	0.597	0.43	1.91 (inactive)	1.94
COc1cccc(-n2ncc3c(N/N=C/c4ccc(S(C)(=O)=O)cc4)ncnc32)c1	0.326	0.242	1.18 (inactive)	1.17
Cn1cc(C2=C(c3ccccc3[N+](=O)[O-])C(=O)NC2=O)c2ccccc21	0.733	0.646	2.39	2.62
Cn1cc(C2=C(c3cccc(OCC(O)CO)c3)C(=O)NC2=O)c2ccccc21 (stereo unspecified)	0.553	0.398	1.68 (inactive)	1.68
Cc1[nH]nc2c1N=C(c1ccccc1F)c1cc(C#N)ccc1N2	0.66	0.386	1.87 (inactive)	2.07
O=C(Nc1n[nH]c2nc(-c3ccc(O)cc3)c(Br)cc12)C1CC1	0.935	0.684	2.27	2.53
COc1ccc(O)c(C(=O)c2ccc(C(=O)O[C@H]3CCCNC[C@@H]3NC(=O)c3ccncc3)cc2)c1F	0.85	0.659	0.93 (inactive)	0.89
